From article PMC7767381, “Exploring the Anti-Cancer Mechanism of Novel 3,4′-Substituted Diaryl Guanidinium Derivatives” (Pharmaceuticals, 2020)
Entries after “also recorded” stand apart in the source; their conditions may differ. Counter-ions that a name gives are not always drawn. Like-named read-outs stand apart in the source and are kept apart here.

What was measured:
BRAF [1] = tested on: BRAF; design: method as in PMID 24858546, PMID 26318998; details: cited from earlier work
HeLa cells = test: alamarBlue cell viability assay, HeLa; type: cell-based; details: Homo sapiens, 72 h, read-out: HeLa IC50 ± SEM
From the text: (§1) Cell viability and proliferation assays were used to evaluate the in vitro cytotoxicity of all synthesised compounds in a variety of different cancer cell lines using the alamarBlue® viability assay and the results are presented in Table 1 and Table 2. The sensitivity of cancer cells to drugs can often be compromised by PIK3CA, Ras and BRAF mutations. To determine whether such mutations are critical to the efficacy of our new compounds we tested them in a range of cancerous cell lines expressing different mutations. Firstly, we used the HL-60 (human promyelocytic leukaemia, NRas mutated) cell line for general cytotoxicity screening of all compounds. […] Lastly, toxicity against MCF-10A, which is a non-tumorigenic epithelial cell line, was also assessed for one of the most promising compounds (4). The graphs representing the viability results with the HL-60, MCF-7, HeLa, HCT-116, and HKH-2 cancer cell lines for compound 1 and derivatives 2, 3, and 4 are shown in Figures S7–S10 (ESI).
(§2) Cells were counted and seeded in 96-well plates at a density of 2 × 10^5 cells/mL for HL-60, 2.5 × 10^4 cells/mL for MCF-7, MCF10A and HeLa, 1 × 10^5 cells/mL for HCT116 and HKH-2, all of them in their respective media. The 96-well plates were then treated with a 1:100 dilution of stock concentrations of drugs or EtOH (1% v/v)/DMSO (0.1% v/v) as vehicle control in triplicate. Three blank wells containing 200 µL RPMI with no cells were also set-up as blanks. After a 72 h incubation, 20 µL of alamarBlue was added to each well. The plates were incubated in darkness at 37 °C for 4–5 h using a Molecular Devices microplate reader, the fluorescence (F) was then read at an excitation wavelength of 544 nm and an emission wavelength of 590 nm. Cell viability was then determined by subtracting the mean blank fluorescence (Fb) from the treated sample fluorescence (Fs) and expressing this as a percentage of the fluorescence of the blanked vehicle control (Fc). […] The results were then plotted as a nonlinear regression, sigmoidal dose-response curves on Prism, from which the IC50 value for each drug was determined.
(§3) The MCF-7 (human breast tumour) cell line was obtained from Prof. Mary Meegan, School of Pharmacy, TCD. It was maintained in Roswell Park Memorial Institute (RPMI) 1640 medium with stable glutamate (GlutaMax I) supplemented with 10% (v/v) fetal bovine serum (FBS), 1% (v/v) penicillin/ streptomycin (pen-strep) and 2 mM L-glutamine.
(§4) The HeLa (human epitheloid cervix carcinoma) cell line was obtained from Prof. Thorfinnur Gunnlaugsson, School of Chemistry TCD. It was maintainedin Dulbecco's Modified Eagle's Medium (DMEM) supplemented with 10% (v/v) fetal bovine serum (FBS) and 1%(v/v) penicillin/ streptomycin (pen-strep).
(§5) The HCT116and HKH-2 (human colon cancer cells) cell lines were obtained from Prof. James Murray, School of Biochemistry and Immunology TCD. They were maintainedin Dulbecco's Modified Eagle's Medium (DMEM) supplemented with 10% (v/v) fetal bovine serum (FBS), 1% (v/v) penicillin/ streptomycin (pen-strep), 1% (v/v) sodium pyruvate (NaPyr), 1% (v/v) L-glutamine (L-Glu) and, only for HKH-2, 0.6 mg/mL geneticine (G418).
(§6) MCF-10A (human breast epithelial) cell line was obtained from Prof. Mary Meegan, School of Pharmacy, TCD. […]
(§7) Cells were counted and seeded in 96 well plates at a density of 2 × 10^5 cells/mL for HL-60, 2.5× 10^4 cells/mL for MCF-7, MCF10A and HeLa, 1 × 10^5 cells/mL for HCT116 and HKH-2, all of them in their respective media. […]

BRAF [2] = tested on: BRAF; design: method as in PMID 24858546, PMID 26318998; details: in vitro; cited from earlier work
HCT116 cells = test: alamarBlue cell viability assay, HCT116; type: cell-based; details: Homo sapiens, HCT-116, 72 h, KRas mutant, read-out: HCT116 IC50 ± SEM
From the text: as §1, §2, §3, §4, §5, §6, §7

HL-60 cells [3] = tested on: HL-60 cells; design: method as in PMID 24858546; details: alamarBlue; previously tested compound; read-out: HL-60 IC50 ± SEM; cited from earlier work
MCF-7 cells = test: alamarBlue cell viability assay, MCF-7; type: cell-based; details: Homo sapiens, MCF7, 72 h, read-out: MCF-7 IC50 ± SEM
From the text: as §1, §2, §3, §4, §5
MCF-10A (human breast epithelial) cell line was obtained from Prof. Mary Meegan, School of Pharmacy, TCD. It was cultured in Dulbecco’s Modified Eagle Medium/Nutrient Mixture F-12 (DMEM/F12; Gibco) supplemented with 5% horse serum (Invitrogen), 20 ng/mL epidermal growth factor (Merck Millipore), 0.5 μg/mL hydrocortisone (Sigma), 100 ng/mL cholera toxin (Sigma), 10 μg/mL insulin (Sigma), and penicillin/streptomycin (1% v/v) (Gibco).
(§8) 4.4. AlamarBlue ® Cell Viability Assay
as §7, with “media. The 96 well plates were then treated with a 1:100 dilution of stock concentrations of drugs or EtOH (1% v/v)/DMSO (0.1% v/v) as vehicle control in triplicate.” for “media.”

HKH-2 cells = test: alamarBlue cell viability assay, HKH-2; type: cell-based; details: Homo sapiens, 72 h, mutated KRas disrupted, read-out: HKH-2 IC50 ± SEM
From the text: as §1, §2, §3, §4, §5, §6, §7

[4] = tested on: ERK phosphorylation (MAPK/ERK pathway); test: Western immunoblot of ERK phosphorylation in HL-60 extracts; type: cell-based, human; details: HL-60, 5 and 10 μM, 16 h
Method: Thus, using Western immunoblot analysis of HL-60 extracts, we investigated the expression and phosphorylation levels of ERK (as an indication of ERK activation), which is the downstream effector of the Ras/BRAF signalling pathway (Figure 6).
HL60s were seeded in T25 flasks at 50 × 10^4 cells/mL and cells were treated with either vehicle [0.5% EtOH (v/v)], 1–4, 9 or 52 (5 µM), as well as 1 (10 µM as reported). After 16 h, cells were collected and washed with PBS. Cell pellets were re-suspended in cold cell lysis buffer (radio-immunoprecipitation assay buffer) supplemented with 1% phosphatase inhibitor cocktail 2 and 3 (Sigma) and 10% protease inhibitor (Roche). Cells were lysed for 30 min on ice. Protein concentration was then determined by BCA assay. Lysates were boiled with Laemmli sample buffer [Tris-HCL 50 mM (pH 6.7), glycerol 10% (w/v), sodium dodecyl sulphate 2% (w/v), bromophenol blue 0.02% (w/v)] containing DTT […] for 10 min at 90 °C. Moreover, 20 µg of lysates were resolved by sodium dodecyl sulphate polyacrylamide gel electrophoresis (SDS-PAGE) and transferred onto PVDF transfer membrane (EMD Millipore). Membranes were blocked with 5% non-fat milk and probed with primary antibodies for ERK and phospho-ERK (Cell Signalling). Anti-GAPDH was used as a loading control (Calbiochem).
Figure 6 Western immunoblot of HL-60 cell extracts following incubation with compounds 2, 3, 4, 9, 52 and 1 (as a control). HL60 cells were seeded at 2 × 10^5 cells/mL and were treated with either vehicle [0.5% EtOH (v/v)], compounds 52, 2, 9, 3 and 4 (5 µM) or compound 1 (5 and (*) 10 µM, as in reference) for 16 h. Cells were lysed and equal amounts of protein were loaded and separated on 15% SDS-PAGE gels, transferred to PVDF membrane and probed with antibodies against total and phosphorylated ERK. Anti-GAPDH was used as a loading control. Results are representative of 2 independent experiments.
HL-60 cells were seeded in T25 flasks at 50 x10^4 cells/mL and treated with either vehicle [0.5% […]
After 16 hours, cells were […]
collected and washed with PBS. Cell pellets were re-suspended in cold cell lysis buffer (radio-immunoprecipitation assay buffer) supplemented with 1% phosphatase inhibitor cocktail 2 and 3 (Sigma) and 10% protease inhibitor (Roche). Cells were lysed for 30 minutes on ice.
Protein concentration was then determined by BCA assay. Lysates were boiled with laemmli sample buffer [Tris-HCL 50 mM (pH 6.7), glycerol 10% (w/v), sodium dodecyl sulphate 2% (w/v), bromophenol blue 0.02% (w/v)] containing DTT […] for 10 min. at 90 °C. Also 20 µg of lysates were resolved by sodium dodecyl sulphate polyacrylamide gel electrophoresis (SDS - PAGE) and transferred onto PVDF transfer membrane (EMD Millipore). Membranes were blocked with 5% non-fat milk and probed with primary antibodies for ERK and phospho-ERK (Cell Signaling). Anti-GAPDH was used as a loading control (Calbiochem).

HL-60 cells [5] = test: alamarBlue cell viability assay, HL-60; type: cell-based; details: Homo sapiens, HL-60, 72 h, read-out: HL-60 IC50 ± SEM
From the text: as §1
as §2, with “determined. […]” for “determined.”
Pharmacy, TCD. It was maintained in Roswell Park Memorial Institute (RPMI) 1640 medium with stable glutamate (GlutaMax I) supplemented with 10% (v/v) fetal bovine serum (FBS), 1% (v/v) penicillin/ streptomycin (pen-strep) and 2 mM L-glutamine. […]
as §8
Cells were counted and seeded in 96 well plates at a density of 2 × 10^5 cells/mL for HL-60, 2.5× 10^4 cells/mL for MCF-7, MCF10A and HeLa, 1 × 10^5 cells/mL for HCT116 and HKH-2, all of them in their respective media. The 96 well plates were then treated with a 1:100 dilution of stock concentrations of drugs or EtOH (1% v/v)/DMSO (0.1% v/v) as vehicle control in triplicate.
Three blank wells containing 200 µL media with no cells were also set-up as blanks. After a 72 h incubation, 20 µL of AlamarBlue was added to each well. The plates were incubated in darkness at 37 °C for 4-5 h. Using a Molecular Devices microplate reader, the fluorescence (F) was then read at an excitation wavelength of 544 nm and an emission wavelength of 590 nm.
Cell viability was then determined by subtracting the mean blank fluorescence (Fb) from the treated sample fluorescence (Fs) and expressing this as a percentage of the fluorescence of the blanked vehicle control (Fc). […] The results were […]
then plotted as a nonlinear regression, sigmoidal dose-response curves on Prism, from which the IC50 value for each drug was determined.
Fs − Fb x 100 = % Cell Viability
60 cell line in a dose-dependent manner.
(1 picture or pasted object on this page, not shown here)

Row | Compound | inhibition of ATP binding to BRAF (BRAF [1]) | IC50 (HeLa cells) | BRAF activity in radiometric assay (BRAF [2]) | IC50 (HCT116 cells) | IC50 (HL-60 cells [3]) | IC50 (MCF-7 cells) | IC50 (HKH-2 cells) | effect on ERK phosphorylation (Ras/BRAF pathway) [4] | IC50 (HL-60 cells [5]; alamarBlue, 72 h) | IC50 (HL-60 cells [5])
1 | N=C(N)Nc1ccc(Oc2cccc(NC(=N)Nc3ccc(Cl)c(C(F)(F)F)c3)c2)cc1 [Compound 1] | did not inhibit ATP binding to BRAF | 9.48 ± 0.16 µM | inhibited in vitro | 9.96 ± 0.6 µM | 9.72 ± 0.9 µM | 9.3 ± 1.87 µM | 19.2 ± 0.84 µM | inhibiting ERK phosphorylation; also recorded: abrogates ERK activation | – | –
2 | N=C(N)Oc1ccc(Oc2cccc(Nc3ccc(Cl)c(C(F)(F)F)c3)c2)cc1 [Compound 70, 4-(3-((4-Chloro-3-(trifluoromethyl)phenyl)amino)phenoxy)phenyl carbamimidate hydrochloride] | – | – | – | – | – | 7.32 ± 0.35 µM | – | – | 4.22 ± 0.04 µM | –
3 | CNC(=O)c1cc(Oc2ccc(NC(=O)Nc3ccc(Cl)c(C(F)(F)F)c3)cc2)ccn1 [Sorafenib, reference compound] | – | 4.59 ± 0.45 µM | – | 6.79 ± 0.18 µM | – | 3.07 ± 0.1 µM | 4.43 ± 0.39 µM | – | – | 2.53 ± 0.68 µM
